From ChEMBL document CHEMBL1641541, “Synthesis and antitrypanosomal evaluation of derivatives of N-benzyl-1,2-dihydroquinolin-6-ols: Effect of core substitutions and salt formation” (Bioorg Med Chem, 2011)
Active and inactive are the calls of the source. The calls are words filed in the database; no cut-off is given here.

Legend:
L6 = experiment: Cytotoxicity against rat L6 cells after 70 hrs by alamar blue assay; assay type: cell-based; settings: L6, 70 h
Trypanosoma brucei = experiment: Antitrypanosomal activity against bloodstream form of Trypanosoma brucei s427 after 72 hrs by MTT assay; assay type: functional, organism-based; settings: s427, 72 h
[1] = test system: Trypanosoma brucei rhodesiense; experiment: Antitrypanosomal activity against bloodstream form of Trypanosoma brucei rhodesiense STIB900 after 70 hrs by alamar blue assay; assay type: functional, organism-based; settings: STIB900, 70 h
[2] = test system: Trypanosoma brucei rhodesiense; experiment: Antitrypanosomal activity against bloodstream form of Trypanosoma brucei rhodesiense STIB900 infected in NMRI mouse assessed as suppression of parasitemia level in mouse tail blood at 50 mg/kg, ip qd for 4 consecutive days measured 5 days post infection; assay type: functional, organism-based; design: dose 50 mg/kg
[3] = Chemical stability of the compound in 100 mM phosphate buffer at pH 7.4; assay type: physicochemical
[4] = test system: Trypanosoma brucei rhodesiense; experiment: Antitrypanosomal activity against bloodstream form of Trypanosoma brucei rhodesiense STIB900 infected in NMRI mouse assessed as day of parasitemia relapse at 50 mg/kg, ip qd for 4 consecutive days; assay type: functional
[5] = test system: Trypanosoma brucei rhodesiense; experiment: Antitrypanosomal activity against bloodstream form of Trypanosoma brucei rhodesiense STIB900 infected in NMRI mouse assessed as suppression of parasitemia level in mouse tail blood at 5 mg/kg, ip qd for 4 consecutive days measured 5 days post infection; assay type: functional, organism-based; design: dose 5 mg/kg
[6] = test system: Trypanosoma brucei rhodesiense; experiment: Antitrypanosomal activity against bloodstream form of Trypanosoma brucei rhodesiense STIB900 infected in NMRI mouse assessed as suppression of parasitemia level in mouse tail blood at 10 mg/kg, ip qd for 4 consecutive days measured 5 days post infection; assay type: functional, organism-based; design: dose 10 mg/kg

Question: Which IC50 (L6) does the source give for `CC(=O)Oc1ccc2c(c1)C(C)=CC(C)(C)N2Cc1ccc(F)c(F)c1` here?
Answer: The IC50 was 17 µM.

Question: What about the IC50 (Trypanosoma brucei) of the same molecule?
Answer: Its IC50 is 0.079 µM.

Question: And the IC50 [1]?
Answer: Its IC50 is 0.025 µM.

Question: For `COc1ccccc1CN1c2ccc(O)cc2C(C)=CC1(C)C.Cl`, which IC50 (L6) is on record?
Answer: The IC50 was 12 µM.

Question: And the IC50 (Trypanosoma brucei)?
Answer: Its IC50 is 0.045 µM.

Question: What about the IC50 [1] of the same molecule?
Answer: Its IC50 is 0.014 µM.

Question: And the Activity [2]?
Answer: The Activity was “Active”.

Question: What about the Stability [3] of the same molecule?
Answer: The Stability was “Unstable”.

Question: Which results are given for `CC(=O)Oc1ccc2c(c1)C(c1ccccc1)=CC(C)(C)N2Cc1ccccc1`?
Answer: IC50 (L6): 49 µM; IC50 (Trypanosoma brucei): 20 µM; IC50 [1]: 4.5 µM

Question: What does the source list for `CC(=O)Oc1ccc2c(c1)C(C)=CC(C)(C)N2Cc1ccc(C(C)C)cc1`?
Answer: IC50 (L6): 10 µM; IC50 (Trypanosoma brucei): 0.97 µM; IC50 [1]: 0.28 µM

Question: For `COc1cc(OC(C)=O)cc2c1N(Cc1ccccc1)C(C)(C)C=C2C`, which IC50 (Trypanosoma brucei) is on record?
Answer: Its IC50 is > 100 µM.

Question: Which IC50 (Trypanosoma brucei) does the source give for `Cc1ccc(C(=O)Nc2ccc(S(=O)(=O)O)c3cc(S(=O)(=O)O)cc(S(=O)(=O)O)c23)cc1NC(=O)c1cccc(NC(=O)Nc2cccc(C(=O)Nc3cc(C(=O)Nc4ccc(S(=O)(=O)O)c5cc(S(=O)(=O)O)cc(S(=O)(=O)O)c45)ccc3C)c2)c1` [SURAMIN] here?
Answer: Its IC50 is 0.11 µM.

Question: For `CC(=O)Oc1cc2c(cc1C)N(Cc1ccccc1)C(C)(C)C=C2C`, which IC50 (Trypanosoma brucei) is on record?
Answer: The IC50 was 0.031 µM.

Question: For `CC(=O)Oc1c(Cl)cc2c(c1Cl)C(C)=CC(C)(C)N2Cc1ccccc1`, which IC50 (L6) is on record?
Answer: Its IC50 is 110 µM.

Question: What about the IC50 (Trypanosoma brucei) of the same molecule?
Answer: The IC50 was 0.49 µM.

Question: And the IC50 [1]?
Answer: Its IC50 is 0.072 µM.

Question: For `CC(=O)Oc1cc2c(cc1-c1ccc(C(F)(F)F)cc1)N(Cc1ccccc1)C(C)(C)C=C2C`, which IC50 (L6) is on record?
Answer: Its IC50 is > 190 µM.

Question: And the IC50 (Trypanosoma brucei)?
Answer: The IC50 was 15 µM.

Question: And the IC50 [1]?
Answer: The IC50 was 9 µM.

Question: Which IC50 (L6) does the source give for `CC(=O)Oc1cc(C)c2c(c1)C(C)=CC(C)(C)N2Cc1ccccc1` here?
Answer: The IC50 was 48 µM.

Question: What about the IC50 (Trypanosoma brucei) of the same molecule?
Answer: The IC50 was 9.2 µM.

Question: And the IC50 [1]?
Answer: Its IC50 is 43 µM.

Question: Which IC50 (L6) does the source give for `CCOc1ccc2c(c1)C(C)=CC(C)(C)N2Cc1ccccc1` here?
Answer: Its IC50 is 97 µM.

Question: What about the IC50 [1] of the same molecule?
Answer: Its IC50 is 41 µM.

Question: And the Activity [4]?
Answer: The Activity was “inactive”.

Question: Which IC50 (L6) does the source give for `CC1=CC(C)(C)N(Cc2ccc(F)c(F)c2)c2ccc(O)cc21` here?
Answer: The IC50 was 11 µM.

Question: And the IC50 (Trypanosoma brucei)?
Answer: Its IC50 is 0.068 µM.

Question: And the IC50 [1]?
Answer: Its IC50 is 0.051 µM.

Question: Which results are given for `CCOc1ccc2c(c1)C(C)=CC(C)(C)N2Cc1ccc(F)c(F)c1`?
Answer: IC50 (L6): 90 µM; IC50 [1]: 140 µM; Activity [2]: inactive; Activity [4]: inactive

Question: Which results are given for `CC(=O)Oc1cc2c(cc1Cl)N(Cc1ccccc1)C(C)(C)C=C2C`?
Answer: IC50 (L6): 22 µM; IC50 (Trypanosoma brucei): 0.22 µM; IC50 [1]: 0.042 µM

Question: For `CC(=O)Oc1ccc2c(c1)C(C)=CC(C)(C)N2Cc1ccccc1`, which IC50 (L6) is on record?
Answer: The IC50 was 18 µM.

Question: What about the IC50 (Trypanosoma brucei) of the same molecule?
Answer: The IC50 was 0.058 µM.

Question: And the IC50 [1]?
Answer: The IC50 was 0.012 µM.

Question: What about the Activity ([4]; route intraperitoneal) of the same molecule?
Answer: The Activity was 12.75 days.

Question: For `COc1ccccc1CN1c2ccc(OC(C)=O)cc2C(C)=CC1(C)C`, which IC50 (L6) is on record?
Answer: The IC50 was 17 µM.

Question: What about the IC50 (Trypanosoma brucei) of the same molecule?
Answer: Its IC50 is 0.041 µM.

Question: And the IC50 [1]?
Answer: The IC50 was 0.011 µM.

Question: What about the Activity [2] of the same molecule?
Answer: Its Activity is “Active”.

Question: For `CC1=CC(C)(C)N(Cc2ccccc2)c2ccc(O)cc21.Cl`, which IC50 (L6) is on record?
Answer: Its IC50 is 11 µM.

Question: What about the IC50 (Trypanosoma brucei) of the same molecule?
Answer: Its IC50 is 0.038 µM.

Question: What about the IC50 [1] of the same molecule?
Answer: Its IC50 is 0.013 µM.

Question: And the Activity [2]?
Answer: The Activity was “Active”.

Question: What about the Stability [3] of the same molecule?
Answer: Its Stability is “Unstable”.

Question: With `N=C(N)c1ccc(OCCCCCOc2ccc(C(=N)N)cc2)cc1` [PENTAMIDINE] as the molecule, how does the IC50 (L6) read?
Answer: The IC50 was 25 µM.

Question: What about the IC50 (Trypanosoma brucei) of the same molecule?
Answer: Its IC50 is 0.012 µM.

Question: And the IC50 [1]?
Answer: Its IC50 is 0.0013 µM.

Question: And the Activity [5]?
Answer: Its Activity is “Active”.

Question: With `N=C(N)c1ccc(/N=N/Nc2ccc(C(=N)N)cc2)cc1` [DIMINAZENE] as the molecule, how does the IC50 (L6) read?
Answer: Its IC50 is 5 µM.

Question: What about the IC50 [1] of the same molecule?
Answer: Its IC50 is 0.0058 µM.

Question: And the Activity [6]?
Answer: The Activity was “Active”.
